Data as given in patent US10512700B2, “Radiohalide-labeled targeted diagnostics and therapeutics” (Memorial Sloan Kettering Cancer Center, priority 2014, dated 2019).
Like-named read-outs stand apart in the source and are kept apart here.

Key:
[1] = Plasma protein binding, Rapid Equilibrium Dialysis; format: in vitro ADME, mouse; set-up: fraction unbound at 4 h: dose or concentration left out as unconfirmed; conditions: 4 h at 37° C.; for % plasma free fraction: 10 μM in mouse serum; for Plasma protein binding: 500 μM in mouse serum
Description: The plasma protein fraction was determined using the Rapid Equilibrium Dialysis Device System (LifeTechnologies, Grand Island, N.Y.) according to the manufacturer's protocol.
For each of the iodinated compounds, membrane dialysis was performed with 10 μM of the compound in mouse serum (500 μL) on one side of the membrane and PBS (750 μL) on the other side. The system was sealed with parafilm and incubated for 4 h at 37° C. on an orbital shaker set to 250 rpm. Thereafter, 400 μL of solution was taken from both sides, and samples were treated twice with an equal amount of AcN and vortexed to remove protein before HPLC analysis. After injection (100 μL), the compound peaks from each sample were then integrated, and the protein bound fraction was determined as % bound=[1−(Concentration buffer chamber/Concentration plasma chamber)]×100. The data was analyzed using Prism 6.0c (GraphPad Software, La Jolla, Calif.).
The system was sealed with parafilm and incubated for 4 h at 37° C. on an orbital shaker set to 100 rpm. Thereafter, 50 μL of solution was taken from both sides, and samples were treated with 300 μL of precipitation buffer (90/10 acetonitrile/water with 0.1% formic acid) and vortexed to remove protein before HPLC analysis. […] The data was analyzed using Prism 6.0c (GraphPad Software, La Jolla, Calif.).

[2] = Chromatographic Hydrophobicity Index (CHI) and log PCHI determination; format: physicochemical; conditions: for chromatographic logP: reverse phase HPLC, read-out: logPCHI
Description: Chromatographic Hydrophobicity Index (CHI) was determined according to the procedures reported in K. Valko et al, “Chromatographic Hydrophobicity Index by Fast-Gradient RP-HPLC: A High-Throughput Alternative to log P/log D”, Anal. Chem. 1997, 69:2022-29, incorporated by reference herein in its entirety. Briefly, a series of standards with known CHIs were analyzed with reverse phase HPLC. Retention times of the standards along with their known CHIs were plotted with Prism 6.0c software (GraphPad, La Jolla, Calif.). A line was fit to the data to create a calibration curve, which was then used to calculate the CHI of the test chemical entity based on the HPLC retention time.
The log PCHI value was determined according to K. Valko, 1997.

U251 MG cells = experiment: In vitro blocking study, competitive inhibition of PARP1i-FL uptake; format: cell-based, human; conditions: 5 μM (10-fold excess) with PARP1i-FL 500 nM, 30 minutes
Description: (§1) U251 MG or U373 MG (1×10^4 cells per well) cells were seeded into 12 wells each on a 96-well plate and cultured for 24 hours. […] Following incubation, cells were washed twice with media and twice with PBS and imaged with a Zeiss LSM 5Live confocal microscope (images not shown). Fluorescence intensity was then quantified from the images using ImageJ 1.47 u processing software (see FIG. 3).

U373 MG cells = experiment: as above; format: cell-based, human; conditions: 5 μM (10-fold excess) with PARP1i-FL 500 nM, 30 minutes
Description: as §1

PARP1 = target: T1, PARP1 (Homo sapiens, UniProt P09874); experiment: IC50 determination, Universal PARP Colorimetric Assay Kit; format: biochemical; conditions: Table 2, measured against PARP1
T1 construct: purchased Trevigen
T1 sequence (P09874 whole entry, species assumed): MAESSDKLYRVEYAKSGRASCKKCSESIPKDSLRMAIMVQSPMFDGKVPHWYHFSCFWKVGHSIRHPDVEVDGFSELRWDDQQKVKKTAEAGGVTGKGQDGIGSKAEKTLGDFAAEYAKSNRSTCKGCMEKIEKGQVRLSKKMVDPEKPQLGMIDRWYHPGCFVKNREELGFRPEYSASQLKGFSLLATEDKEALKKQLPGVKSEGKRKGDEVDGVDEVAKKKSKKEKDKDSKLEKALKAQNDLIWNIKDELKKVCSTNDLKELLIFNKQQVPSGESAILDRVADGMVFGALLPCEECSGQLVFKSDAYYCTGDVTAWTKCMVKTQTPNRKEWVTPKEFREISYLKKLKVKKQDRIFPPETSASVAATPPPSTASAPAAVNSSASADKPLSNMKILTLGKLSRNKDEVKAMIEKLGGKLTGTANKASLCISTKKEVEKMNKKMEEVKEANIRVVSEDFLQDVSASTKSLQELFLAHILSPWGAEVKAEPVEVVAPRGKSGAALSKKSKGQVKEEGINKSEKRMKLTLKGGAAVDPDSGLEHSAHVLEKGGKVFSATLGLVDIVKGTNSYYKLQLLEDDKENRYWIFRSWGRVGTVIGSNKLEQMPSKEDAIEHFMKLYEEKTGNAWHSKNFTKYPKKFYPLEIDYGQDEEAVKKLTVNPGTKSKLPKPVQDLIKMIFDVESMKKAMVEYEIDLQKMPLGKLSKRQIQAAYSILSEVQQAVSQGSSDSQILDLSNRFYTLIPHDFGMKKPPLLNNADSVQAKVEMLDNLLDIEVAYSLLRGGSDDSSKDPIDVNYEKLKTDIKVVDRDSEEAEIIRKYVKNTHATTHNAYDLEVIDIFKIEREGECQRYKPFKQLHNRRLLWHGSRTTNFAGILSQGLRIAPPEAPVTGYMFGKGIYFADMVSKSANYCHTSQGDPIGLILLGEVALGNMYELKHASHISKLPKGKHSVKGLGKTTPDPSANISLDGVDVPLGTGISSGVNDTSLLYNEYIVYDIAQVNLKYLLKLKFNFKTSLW
Description: Inhibition of PARP1 was measured using the Universal PARP Colorimetric Assay Kit (Trevigen®, Gaithersburg, Md.). IC50 values were calculated using Prism 6.0c software (GraphPad, La Jolla, Calif.).
All experiments were carried out in triplicate.

[3] = reported for olaparib; cited from earlier work

Structure (SMILES)	% plasma free fraction [1] [%]	CHI ([2]; Table 2)	chromatographic logP ([2]; Table 2)	IC50 (PARP1) [nM]	further results
O=C(c1cccc(I)c1)N1CCN(C(=O)c2cc(Cc3n[nH]c(=O)c4ccccc34)ccc2F)CC1 [c-1 (^127I), 4-(4-fluoro-3-(4-(3-iodobenzoyl)piperazine-1-carbonyl)benzyl)-phthalazin-1(2H)-one]	9.6 ± 1.5	–	–	–	–
O=C(c1ccc(F)cc1)N1CCN(C(=O)c2cc(Cc3n[nH]c(=O)c4ccccc34)ccc2F)CC1 [c-2 (^19F)]	–	–	–	–	CHI ([2]; Table 3): 57.5; logPCHI ([2]; Table 3): 2.15±0.41; chromatographic logP ([2]; Table 3): 2.15 ± 0.41; Plasma protein binding [1]: 63.9 ± 12.6%; fraction unbound at 4 h ([1]; mouse, mouse serum): 0.36; reduction of fluorescence intensity in the nucleus (U251 MG cells): 80.0%±10.8%; reduction of fluorescence intensity in the nucleus (U373 MG cells): 78.8%±10.4%
O=C(c1ccc(I)cc1)N1CCN(C(=O)c2cc(Cc3n[nH]c(=O)c4ccccc34)ccc2F)CC1 [c-2 (^127I), 4-(4-fluoro-3-(4-(4-iodobenzoyl)piperazine-1-carbonyl)benzyl)-phthalazin-1(2H)-one]	11.5 ± 0.1	–	–	–	–
O=C(Cc1cccc(I)c1)N1CCN(C(=O)c2cc(Cc3n[nH]c(=O)c4ccccc34)ccc2F)CC1 [c-3 (^127I), 4-(4-fluoro-3-(4-(2-(3-iodophenyl)acetyl)piperazine-1-carbonyl)-benzyl)phthalazin-1(2H)-one]	7.0 ± 0.1	66.7	2.7	34 ± 3	–
O=C(CCc1cccc(I)c1)N1CCN(C(=O)c2cc(Cc3n[nH]c(=O)c4ccccc34)ccc2F)CC1 [c-5 (^127I), 4-(4-fluoro-3-(4-(3-(3-iodophenyl)propanoyl)piperazine-1-carbonyl)benzyl)phthalazin-1(2H)-one]	7.8 ± 1.4	71.6	3	107 ± 4	–
O=C(c1cc(Cc2n[nH]c(=O)c3ccccc23)ccc1F)N1CCN(C(=O)C2CC2)CC1 [olaparib, 4-[3-(4-cyclopropanecarbonylpiperazine-1-carbonyl)-4-fluorobenzyl]-2H-phthalazin-1-one, reference compound]	–	–	–	–	Plasma protein binding [1]: 65%; reduction of fluorescence intensity in the nucleus (U251 MG cells): 69.6%±22.3%; reduction of fluorescence intensity in the nucleus (U373 MG cells): 71.2%±20.0%; CHI [3]: 34.1; logPCHI [3]: 0.8

The next lines start with results.

% plasma free fraction [1] [%]	CHI ([2]; Table 2)	chromatographic logP ([2]; Table 2)	IC50 (PARP1) [nM]	Structure (SMILES)	further results
5.0 ± 0.3	66.7	2.7	74 ± 5	O=C(Cc1ccc(I)cc1)N1CCN(C(=O)c2cc(Cc3n[nH]c(=O)c4ccccc34)ccc2F)CC1 [c-4 (^127I), 4-(4-fluoro-3-(4-(2-(4-iodophenyl)acetyl)piperazine-1-carbonyl)-benzyl)phthalazin-1(2H)-one]	–
4.7 ± 0.5	71.6	3	47 ± 5	O=C(CCc1ccc(I)cc1)N1CCN(C(=O)c2cc(Cc3n[nH]c(=O)c4ccccc34)ccc2F)CC1 [c-6 (^127I), 4-(4-fluoro-3-(4-(3-(4-iodophenyl)propanoyl)piperazine-1-carbonyl)benzyl) phthalazin-1(2H)-one]	–
